# From patent US20020188022A1, “Methods for modulation, stimulation, and inhibition of glutamate reuptake” (Annovis. Inc., priority 2000, published 2002)
# Where two headings read alike, the source gives them in different places.
# Assays:
# [1] = target: T1, Glial Glutamate Transporter (GLAST and GLT1); assay: Binding of [3H]-4MG to rat forebrain membrane homogenates in Na+-containing HEPES buffer; conditions: for Displacement of 4MG binding: at or above 100 μM, FIG. 5
# T1 construct: Bmax; other: 20 nM [3H]-4MG, 4° C; KD
# Procedure: (§1) Forebrain tissue from female Sprague Dawley rats was homogenized in HEPES buffer containing Na^+, and membranes were washed twice in the same buffer. Binding experiments were also performed in this buffer. Initial studies determined appropriate parameters for time (15 minutes incubation at 4° C.) and drug concentration (20 nM [^3H]-4MG) to be used in subsequent experiments. Following incubation of [^3H]-4MG with or without other compounds, binding was terminated by rapid filtration through Whatman GF/B filter discs and washing 3 times with buffer using a Brandel cell harvester. Binding was determined by scintillation spectrometry. A full range of association, dissociation, saturation and inhibition studies was performed over varying incubation times (up to 60 min). Data were analysed using computer-assisted curve fitting. Values are expressed as mean of at least triplicate determinations and multiple experiments.
# (§2) A full range of association, dissociation, saturation and inhibition studies was performed over varying incubation times (up to 60 min). Data were analysed using computer-assisted curve fitting. Values cited are expressed as mean of at least triplicate determinations and multiple experiments.
# [2] = test system: Glial Glutamate Transporter (GLAST and GLT1); assay: as above; conditions: FIG. 5
# Procedure: as §1, §2
# [3] = Hydrolysis of prodrug to the acid form; type: in vitro ADME
# Description: (§3) The ester, carbonate, and amine bond in any prodrug forms of compounds identified by the disclosed method can be readily cleaved in vivo. Therefore, prodrug compositions can be hydrolyzed to the corresponding acid forms in plasma.
# Analgesic effect test = type: in vivo; conditions: compared with 1
# Description: as §3
# [4] = Bioavailability and half-life of prodrug; type: in vivo; conditions: compared with 1
# Description: as §3
# [5] = 20 nM [3H]-4MG, 4° C., read-out: Displacement of 4MG binding to rat brain membrane homogenates, IC50
compound,measurement,setting,value
"C[C@H](C[C@H](N)C(=O)O)C(=O)O [4MG, (2S,4R)-4-methylglutamate]",Kd,[1],5.4 µM
same,IC50,"[1]; read-out: Displacement of 4MG binding to rat brain membrane homogenates, IC50",6.7 µM
"Cc1onc(O)c1CC(N)C(=O)O (stereo not drawn) [AMPA, α-amino-3-hydroxy-5-methyl-4-isoxazolepropionate]",Displacement of 4MG binding,[1],failed to significantly displace
CC(C)(C)c1o[nH]c(=O)c1CC(N)C(=O)O (stereo not drawn) [ATPA],Effect on 4MG and/or D-aspartate binding to GluTs,[2],failed to affect
"N[C@H](C(=O)O)[C@H]1C[C@H]1C(=O)O [CCG-III, (2S,3S,4R)-2-(carboxycyclopropyl)glycine]",IC50,[1]; [5],1.2 µM
N[C@H](CC(=O)O)C(=O)O [D-aspartate],IC50,[1]; [5],10.9 µM
"N[C@@H](Cn1cc(F)c(=O)[nH]c1=O)C(=O)O [FW, fluorowillardiine]",Displacement of 4MG binding,[1],failed to significantly displace
"NCCCC(=O)O [GABA, γ-aminobutyric acid]",Effect on 4MG and/or D-aspartate binding to GluTs,[2],failed to affect
"NCC(=O)O [GLY, glycine]",Effect on 4MG and/or D-aspartate binding to GluTs,[2],failed to affect
"N[C@@H](Cn1cc(I)c(=O)[nH]c1=O)C(=O)O [IW, iodowillardine]",Effect on 4MG and/or D-aspartate binding to GluTs,[2],failed to affect
N[C@@H](CC(=O)O)C(=O)O [L-aspartate],IC50,[1]; [5],7.5 µM
"CN[C@H](CC(=O)O)C(=O)O [NMDA, N-methyl-D-aspartate]",Displacement of 4MG binding,[1],failed to significantly displace
"O=C(O)[C@H]1CN[C@H](C(=O)O)C1 [PDC, L-trans-pyrrolidine-2,4-dicarboxylate]",IC50,[1]; [5],2.9 µM
"N[C@@H](COS(=O)(=O)O)C(=O)O [SOS, L-serine-O-sulphate]",IC50,[1]; [5],40 µM
C[C@H](C[C@H](N)C(=O)O)C(=O)O [SYM 2081],IC50,"[1]; Table 2, read-out: Inhibition of Binding of [3H]-4MG to Glial Glutamate Transporter, IC50",29 µM
"COC(=O)[C@H](C)C[C@H](N)C(=O)OC [compound 2, (2S,4R)-4-methyl glutamic acid dimethyl ester]","Hydrolysis to (2S,4R)-4-methyl glutamic acid (1)",[3],readily hydrolyzed
same,Analgesic effect,Analgesic effect test,analgesic effect similar to 1
same,Bioavailability,[4],enhanced bioavailability
same,Half-life,[4],longer half-life
"N[C@@H](CCC(=O)O)C(=O)O [glutamate, L-glutamic acid]",IC50,[1]; [5],6.1 µM
"L-anti-endo-3,4-methanopyrrolidine dicarboxylate [MPDC]",IC50,[1]; [5],4 µM
